Reference: PubChem BioAssay (NCI)
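These data come from cells grown in 96-well plates and exposed to compound for 48 hours at five concentrations. The concentration for full growth arrest is given as TGI.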

Tests used:
Assay in all cases: inhibition of tumour cell growth, NCI panel, 48 h
SNB-19 CNS = tested on: SNB-19 CNS
LXFL 529 NSCLC = tested on: LXFL 529 NSCLC
NCI-H460 lung = tested on: NCI-H460 lung
U251 CNS = tested on: U251 CNS
TK-10 renal = tested on: TK-10 renal
MALME-3M melanoma = tested on: MALME-3M melanoma
OVCAR-8 ovarian = tested on: OVCAR-8 ovarian
SK-MEL-2 melanoma = tested on: SK-MEL-2 melanoma
EKVX NSCLC = tested on: EKVX NSCLC
OVCAR-3 ovarian = tested on: OVCAR-3 ovarian
SN12C renal = tested on: SN12C renal
RXF 393 renal = tested on: RXF 393 renal
DLD-1 colon = tested on: DLD-1 colon
M19-MEL melanoma = tested on: M19-MEL melanoma
HCT-116 colon = tested on: HCT-116 colon
MOLT-4 leukemia = tested on: MOLT-4 leukemia
A498 renal = tested on: A498 renal
SR leukemia = tested on: SR leukemia
SW-620 colon = tested on: SW-620 colon
SF-539 CNS = tested on: SF-539 CNS
A549 NSCLC = tested on: A549 NSCLC
CCRF-CEM leukemia = tested on: CCRF-CEM leukemia
HCT-15 colon = tested on: HCT-15 colon
M14 melanoma = tested on: M14 melanoma
DMS 273 small cell lung = tested on: DMS 273 small cell lung
CAKI-1 renal = tested on: CAKI-1 renal
K-562 leukemia = tested on: K-562 leukemia
HL-60(TB) leukemia = tested on: HL-60(TB) leukemia
HCC-2998 colon = tested on: HCC-2998 colon
UACC-257 melanoma = tested on: UACC-257 melanoma
KM20L2 colon = tested on: KM20L2 colon
RXF-631 renal = tested on: RXF-631 renal
SK-OV-3 ovarian = tested on: SK-OV-3 ovarian
IGROV1 ovarian = tested on: IGROV1 ovarian
NCI-H226 lung = tested on: NCI-H226 lung
SF-268 CNS = tested on: SF-268 CNS
KM12 colon = tested on: KM12 colon
SNB-78 CNS = tested on: SNB-78 CNS
NCI-H522 lung = tested on: NCI-H522 lung
SF-295 CNS = tested on: SF-295 CNS
OVCAR-5 ovarian = tested on: OVCAR-5 ovarian
RPMI-8226 leukemia = tested on: RPMI-8226 leukemia
LOX IMVI melanoma = tested on: LOX IMVI melanoma
ACHN renal = tested on: ACHN renal
OVCAR-4 ovarian = tested on: OVCAR-4 ovarian
NCI-H23 lung = tested on: NCI-H23 lung
HOP-92 NSCLC = tested on: HOP-92 NSCLC
HOP-62 NSCLC = tested on: HOP-62 NSCLC
SK-MEL-28 melanoma = tested on: SK-MEL-28 melanoma
UACC-62 melanoma = tested on: UACC-62 melanoma
UO-31 renal = tested on: UO-31 renal
SNB-75 CNS = tested on: SNB-75 CNS
COLO 205 colon = tested on: COLO 205 colon
SK-MEL-5 melanoma = tested on: SK-MEL-5 melanoma
XF 498 CNS = tested on: XF 498 CNS
DMS 114 small cell lung = tested on: DMS 114 small cell lung
HT29 colon = tested on: HT29 colon
HOP-18 NSCLC = tested on: HOP-18 NSCLC

In the case of CC(C)C1=CC2=CC[C@@H]3[C@](C)(CCC[C@@]3(C)C(=O)O)[C@H]2CC1, the TGI (SNB-19 CNS) is reported as > 100 µM, the TGI (LXFL 529 NSCLC) is reported as > 100 µM and the TGI (NCI-H460 lung) is reported as > 100 µM. For the same compound, the TGI (U251 CNS) was > 100 µM, the TGI (TK-10 renal) was > 100 µM and the TGI (MALME-3M melanoma) was > 100 µM. The TGI (OVCAR-8 ovarian) was > 100 µM, the TGI (SK-MEL-2 melanoma) was > 78.9 µM and the TGI (EKVX NSCLC) was > 89.3 µM. The TGI (OVCAR-3 ovarian) was 72.4 µM, the TGI (SN12C renal) was > 100 µM and the TGI (RXF 393 renal) was 97.4 µM. For the same compound, the TGI (DLD-1 colon) was > 100 µM, the TGI (M19-MEL melanoma) was > 100 µM and the TGI (HCT-116 colon) was > 80.2 µM. The TGI (MOLT-4 leukemia) was > 75.7 µM, the TGI (A498 renal) was > 100 µM and the TGI (SR leukemia) was > 100 µM. The TGI (SW-620 colon) was > 100 µM, the TGI (SF-539 CNS) was > 100 µM and the TGI (A549 NSCLC) was > 100 µM. For the same compound, the TGI (CCRF-CEM leukemia) was > 100 µM, the TGI (HCT-15 colon) was > 87 µM and the TGI (M14 melanoma) was > 100 µM. The TGI (DMS 273 small cell lung) was > 100 µM, the TGI (CAKI-1 renal) was > 100 µM and the TGI (K-562 leukemia) was > 100 µM. For the same compound, the TGI (HL-60(TB) leukemia) was > 88.3 µM, the TGI (HCC-2998 colon) was > 100 µM and the TGI (UACC-257 melanoma) was > 100 µM. For the same compound, the TGI (KM20L2 colon) was > 100 µM, the TGI (RXF-631 renal) was > 100 µM and the TGI (SK-OV-3 ovarian) was > 100 µM. For the same compound, the TGI (IGROV1 ovarian) was > 100 µM, the TGI (NCI-H226 lung) was > 100 µM and the TGI (SF-268 CNS) was > 100 µM. For the same compound, the TGI (KM12 colon) was > 100 µM, the TGI (SNB-78 CNS) was > 96.2 µM and the TGI (NCI-H522 lung) was > 100 µM. For the same compound, the TGI (SF-295 CNS) was > 100 µM, the TGI (OVCAR-5 ovarian) was > 100 µM and the TGI (RPMI-8226 leukemia) was > 79.7 µM. The TGI (LOX IMVI melanoma) was > 100 µM, the TGI (ACHN renal) was > 100 µM and the TGI (OVCAR-4 ovarian) was > 100 µM. The TGI (NCI-H23 lung) was > 89.9 µM, the TGI (HOP-92 NSCLC) was > 84.6 µM and the TGI (HOP-62 NSCLC) was > 100 µM. The TGI (SK-MEL-28 melanoma) was > 100 µM, the TGI (UACC-62 melanoma) was 68.3 µM and the TGI (UO-31 renal) was > 82.7 µM. The TGI (SNB-75 CNS) was > 100 µM, the TGI (COLO 205 colon) was 71.9 µM and the TGI (SK-MEL-5 melanoma) was > 94.2 µM. For the same compound, the TGI (XF 498 CNS) was > 100 µM, the TGI (DMS 114 small cell lung) was > 100 µM and the TGI (HT29 colon) was 45.9 µM. The TGI (HOP-18 NSCLC) was > 100 µM.
